Patent US7405216B2, “Stable crystalline form of bifeprunox mesylate (7-[4-([1,1′-biphenyl]-3-ylmethyl)-1-piperazinyl]-2(3H)-benzoxazolone monomethanesulfonate)” (Solvay Pharmaceuticals, B.V., priority 2004, dated 2008)

Test: Stability of the crystalline polymorphic forms of bifeprunox mesylate
Assay type: physicochemical
Details: for thermodynamic stability of the polymorphic form: solid crystalline form, found during further investigations, monomethanesulfonate

Structure (SMILES) | conversion of the polymorphic form (even at high atmospheric humidity or higher temperature) | thermodynamic stability of the polymorphic form
O=c1[nH]c2cccc(N3CCN(Cc4cccc(-c5ccccc5)c4)CC3)c2o1 [polymorph α, 7-[4-([1,1′-biphenyl]-3-ylmethyl)-1-piperazinyl]-2(3H)-benzoxazolone monomethanesulfonate] | does not undergo conversion | more thermodynamically stable
O=c1[nH]c2cccc(N3CCN(Cc4cccc(-c5ccccc5)c4)CC3)c2o1 [polymorph γ, 7-[4-([1,1′-biphenyl]-3-ylmethyl)-1-piperazinyl]-2(3H)-benzoxazolone monomethanesulfonate] |  | metastable
O=c1[nH]c2cccc(N3CCN(Cc4cccc(-c5ccccc5)c4)CC3)c2o1 [polymorph δ, 7-[4-([1,1′-biphenyl]-3-ylmethyl)-1-piperazinyl]-2(3H)-benzoxazolone monomethanesulfonate] |  | metastable
